Results from patent US12281363B2, “Methods for detecting antiviral-drug resistant virus” (Secretary of State for Health and Social Care, priority 2018, dated 2025).
Like-named read-outs stand apart in the source and are kept apart here.

System: HSV-1
Assay: Plaque reduction assay, HSV-1 clinical isolates on Vero cells
Type: cell-based
Settings: Human alphaherpesvirus 1, Vero
Excerpt: Viral isolates were used to infect a sub-confluent monolayer of Vero cells at a concentration of 75 or 50 plaque forming units (PFU) per well for HSV-1 and HSV-2, respectively. […] CMC medium typically used to create a semisolid interface and prevents indiscrimate viral spreading. Other materials (e.g. agar) may also be used to create this interface.
Cells were fixed with 10% formalin and stained with crystal violet before enumeration of the plaques (microscopic observation or use of fluorescent antibodies for detection is also suitable). The data obtained from these experiments were then expressed as percent inhibition of viral infectivity relative to the no drug control.
Definitions of phenotypic drug susceptibility classification as sensitive or resistant were as follows: ACV, <3 μM or >40 μM; PCV, <10 μM or >40 μM; CDV, <24 μM or >30 μM; FOS, <250 μM or >400 μM; and ACV, <6.5 μM or >40 μM; PCV, <38 μM or >40 μM; FOS, <250 μM or >400 μM for HSV-1 and HSV-2, respectively. Any IC50 values falling in between these sensitive and resistant cut-offs were reported as intermediate resistance.
The phenotype (i.e. reactivity to a drug) of the virus was characterised by the plaque reduction assay as described above.

For `O=C(O)P(=O)(O)O` [Foscarnet, foscarnet], the IC50 (72 h, isolate HPG053, HSV-1 pol L802R + A834S (2405T>G, 2500G>T), also TK R176W, read-out: Drug susceptibility (IC50 value)) was 626 µM, the IC50 (isolate HPG002, HSV-1 pol E992K (2974G>A), also TK insert (G) nt 430-436, pol A1169T, read-out: Drug susceptibility (IC50 value)) was under 50 µM and the IC50 (isolate HPG002, HSV-1 pol E992K (2974G>A), also TK insert (G) nt 430-436, pol A1169T, read-out: Drug susceptibility Foscarnet (FOS)) was under 250 µM. For the same molecule, the IC50 (isolate HPG003, HSV-1 TK Y172S (515A>C), read-out: Drug susceptibility (IC50 value)) was 79 µM, the IC50 (isolate HPG003, HSV-1 TK Y172S (515A>C), read-out: Drug susceptibility Foscarnet (FOS)) was under 250 µM and the IC50 (isolate HPG005, HSV-1 TK A37V (110C>T), read-out: Drug susceptibility (IC50 value)) was 36.9 µM. The IC50 (isolate HPG005, HSV-1 TK A37V (110C>T), read-out: Drug susceptibility Foscarnet (FOS)) was under 250 µM, the IC50 (isolate HPG008, HSV-1 TK V204G (611T>G), read-out: Drug susceptibility (IC50 value)) was 58.3 µM and the IC50 (isolate HPG008, HSV-1 TK V204G (611T>G), read-out: Drug susceptibility Foscarnet (FOS)) was under 250 µM. The IC50 (isolate HPG009, HSV-1 pol E992K (2974G>A), also pol A1169T, read-out: Drug susceptibility (IC50 value)) was 77.5 µM, the IC50 (isolate HPG009, HSV-1 pol E992K (2974G>A), also pol A1169T, read-out: Drug susceptibility Foscarnet (FOS)) was under 250 µM and the IC50 (isolate HPG010, HSV-1 TK Q125* (373C>T), read-out: Drug susceptibility (IC50 value)) was 46.7 µM. It also gave an IC50 (isolate HPG010, HSV-1 TK Q125* (373C>T), read-out: Drug susceptibility Foscarnet (FOS)) of under 250 µM, an IC50 (isolate HPG011, HSV-1 TK Q125* (373C>T), read-out: Drug susceptibility (IC50 value)) of 56 µM and an IC50 (isolate HPG011, HSV-1 TK Q125* (373C>T), read-out: Drug susceptibility Foscarnet (FOS)) of under 250 µM. It also gave an IC50 (isolate HPG013, HSV-1 TK M121I (363G>A), read-out: Drug susceptibility (IC50 value)) of 78 µM, an IC50 (isolate HPG013, HSV-1 TK M121I (363G>A), read-out: Drug susceptibility Foscarnet (FOS)) of under 250 µM and an IC50 (isolate HPG013, HSV-1 pol D83A (248A>C), also TK M121I, pol A1169T, read-out: Drug susceptibility (IC50 value)) of 78 µM. For the same molecule, the IC50 (isolate HPG013, HSV-1 pol D83A (248A>C), also TK M121I, pol A1169T, read-out: Drug susceptibility Foscarnet (FOS)) was under 250 µM, the IC50 (isolate HPG014, HSV-1 pol A1115T (3343G>A), read-out: Drug susceptibility (IC50 value)) was 141 µM and the IC50 (isolate HPG014, HSV-1 pol A1115T (3343G>A), read-out: Drug susceptibility Foscarnet (FOS)) was under 250 µM. The IC50 (isolate HPG014, HSV-1 pol R993C (2977C>T), read-out: Drug susceptibility (IC50 value)) was 141 µM, the IC50 (isolate HPG014, HSV-1 pol R993C (2977C>T), read-out: Drug susceptibility Foscarnet (FOS)) was under 250 µM and the IC50 (isolate HPG014, HSV-1 pol T54A (160A>G), read-out: Drug susceptibility (IC50 value)) was 141 µM. The IC50 (isolate HPG014, HSV-1 pol T54A (160A>G), read-out: Drug susceptibility Foscarnet (FOS)) was under 250 µM, the IC50 (isolate HPG015, HSV-1 pol 966stop or F965_I966insF (2892_2893insT to 2895_2896insT), read-out: Drug susceptibility (IC50 value)) was 162 µM and the IC50 (isolate HPG015, HSV-1 pol 966stop or F965_I966insF (2892_2893insT to 2895_2896insT), read-out: Drug susceptibility Foscarnet (FOS)) was under 250 µM. The IC50 (isolate HPG018, HSV-1 TK frameshift (881delC to 885delC), read-out: Drug susceptibility (IC50 value)) was 66.7 µM, the IC50 (isolate HPG018, HSV-1 TK frameshift (881delC to 885delC), read-out: Drug susceptibility Foscarnet (FOS)) was under 250 µM and the IC50 (isolate HPG018, HSV-1 pol P1199T (3595C>A), also TK deletion (C) nt 881-885, pol A1169T, read-out: Drug susceptibility (IC50 value)) was 66.7 µM. For the same molecule, the IC50 (isolate HPG018, HSV-1 pol P1199T (3595C>A), also TK deletion (C) nt 881-885, pol A1169T, read-out: Drug susceptibility Foscarnet (FOS)) was under 250 µM, the IC50 (isolate HPG019, HSV-1 pol K750T (2249A>C), also TK deletion (G) nt 430-436, pol A1169T, read-out: Drug susceptibility (IC50 value)) was 190 µM and the IC50 (isolate HPG019, HSV-1 pol K750T (2249A>C), also TK deletion (G) nt 430-436, pol A1169T, read-out: Drug susceptibility Foscarnet (FOS)) was under 250 µM. It also gave an IC50 (isolate HPG020, HSV-1 pol S911N (2732G>A), also pol A1169T, read-out: Drug susceptibility (IC50 value)) of 99.3 µM, an IC50 (isolate HPG020, HSV-1 pol S911N (2732G>A), also pol A1169T, read-out: Drug susceptibility Foscarnet (FOS)) of under 250 µM and an IC50 (isolate HPG021, HSV-1 pol R681Q (2042G>A), also TK deletion (G) nt 430-436, read-out: Drug susceptibility (IC50 value)) of 156 µM. For the same molecule, the IC50 (isolate HPG021, HSV-1 pol R681Q (2042G>A), also TK deletion (G) nt 430-436, read-out: Drug susceptibility Foscarnet (FOS)) was under 250 µM, the IC50 (isolate HPG021, HSV-1 pol T839A (2515A>G), also TK deletion (G) nt 430-436, read-out: Drug susceptibility (IC50 value)) was 156 µM and the IC50 (isolate HPG021, HSV-1 pol T839A (2515A>G), also TK deletion (G) nt 430-436, read-out: Drug susceptibility Foscarnet (FOS)) was under 250 µM. For the same molecule, the IC50 (isolate HPG025, HSV-1 pol E850Q (2548G>C), also TK R216C, read-out: Drug susceptibility (IC50 value)) was 99.1 µM, the IC50 (isolate HPG025, HSV-1 pol E850Q (2548G>C), also TK R216C, read-out: Drug susceptibility Foscarnet (FOS)) was under 250 µM and the IC50 (isolate HPG026, HSV-1 pol E850Q (2548G>C), also TK R216C, pol A1169T, read-out: Drug susceptibility (IC50 value)) was 68.3 µM. For the same molecule, the IC50 (isolate HPG026, HSV-1 pol E850Q (2548G>C), also TK R216C, pol A1169T, read-out: Drug susceptibility Foscarnet (FOS)) was under 250 µM, the IC50 (isolate HPG027, HSV-1 TK V204G (611T>G), also pol S914L, A1169AT, read-out: Drug susceptibility (IC50 value)) was 216 µM and the IC50 (isolate HPG027, HSV-1 TK V204G (611T>G), also pol S914L, A1169AT, read-out: Drug susceptibility Foscarnet (FOS)) was under 250 µM. The IC50 (isolate HPG027, HSV-1 pol S914L (2741C>T), also TK V204G, pol A1169T, read-out: Drug susceptibility (IC50 value)) was 216 µM, the IC50 (isolate HPG027, HSV-1 pol S914L (2741C>T), also TK V204G, pol A1169T, read-out: Drug susceptibility Foscarnet (FOS)) was under 250 µM and the IC50 (isolate HPG029, HSV-1 TK Y172S (515A>C), read-out: Drug susceptibility (IC50 value)) was 111 µM. For the same molecule, the IC50 (isolate HPG029, HSV-1 TK Y172S (515A>C), read-out: Drug susceptibility Foscarnet (FOS)) was under 250 µM, the IC50 (isolate HPG031, HSV-1 pol E1120A (3359A>C), also a TK resistance mutation (footnote e), read-out: Drug susceptibility (IC50 value)) was 108 µM and the IC50 (isolate HPG031, HSV-1 pol E1120A (3359A>C), also a TK resistance mutation (footnote e), read-out: Drug susceptibility Foscarnet (FOS)) was under 250 µM. It also gave an IC50 (isolate HPG031, HSV-1 pol G139R (415G>C or 415G>A), also a TK resistance mutation (footnote e), read-out: Drug susceptibility (IC50 value)) of 108 µM, an IC50 (isolate HPG031, HSV-1 pol G139R (415G>C or 415G>A), also a TK resistance mutation (footnote e), read-out: Drug susceptibility Foscarnet (FOS)) of under 250 µM and an IC50 (isolate HPG032, HSV-1 TK 183* (437_438insA), read-out: Drug susceptibility (IC50 value)) of 100 µM. It also gave an IC50 (isolate HPG032, HSV-1 TK 183* (437_438insA), read-out: Drug susceptibility Foscarnet (FOS)) of under 250 µM.
